{"source": "paper PMC8248988", "about": "“A signal capture and proofreading mechanism for the KDEL-receptor explains selectivity and dynamic range in ER retrieval” (eLife, 2021)", "assay_type_in_all_cases": "cell-based", "conditions_in_all_cases": "COS-7 cells", "key": {"[1]": {"molecular_target": "T1, human KDELR1 D50N (Homo sapiens, UniProt P24390, D50N)", "T1 construct": "expressed in transfected cells; host or cells: COS-7", "T1 sequence (P24390 whole entry D50N)": "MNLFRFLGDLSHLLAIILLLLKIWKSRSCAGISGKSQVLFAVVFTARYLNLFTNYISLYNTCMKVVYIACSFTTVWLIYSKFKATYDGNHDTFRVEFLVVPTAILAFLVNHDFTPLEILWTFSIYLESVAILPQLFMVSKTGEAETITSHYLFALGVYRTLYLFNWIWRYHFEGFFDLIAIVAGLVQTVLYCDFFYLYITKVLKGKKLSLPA", "assay": "ER retrieval assay, KDELR1 D50N-GFP", "excerpt": "(§1) To create KDELR1-GFP and KDELR2-GFP, the reading frames for Homo sapiens KDELR1 (Uniprot: P24390) and KDELR2 (Uniprot: P33947) were cloned into the pEF5/FRT low level mammalian expression vector with a C-terminal 20 amino acid linker made up of 5 copies of Gly-Ser-Ser-Ser followed by GFP. Specific point mutations were introduced using the Quickchange protocol (Stratagene) and are described in the key resources table and figures. To create the mScarlet-KDEL^sec ligand construct, mScarlet with an N-terminal hGH signal peptide and the 16 C-terminal residues of human BiP at its C-terminus, containing the KDEL signal, was cloned into the pcDNA3.1 vector. […] The Golgi marker protein TGN46 was detected by antibody (sheep anti-TGN46 AHP500G; AbD Serotec) and an Alexa 647 conjugated secondary anti-sheep secondary (A-21448, Invitrogen). In Figure 1d and e, endogenous KDELR was detected by antibody (mouse anti-KDELR ADI-VAA-PT048; Enzo Life Sciences) and Alexa 488 conjugated anti-mouse secondary antibody (A-21202, Invitrogen). For retrieval assays in other figures, KDELR-GFP fusion proteins were directly detected by fluorescence. The mScarlet-xDEL fusion proteins were directly detected by fluorescence. […] The fraction of KDEL receptor in the Golgi apparatus was calculated by dividing the Golgi signal by the total cell signal. […]"}, "[2]": {"molecular_target": "T2, human KDELR1 N54K (Homo sapiens, UniProt P24390, N54K)", "T2 construct": "expressed in transfected cells; host or cells: COS-7", "T2 sequence (P24390 whole entry N54K)": "as the sequence (P24390 whole entry D50N) above, with N50D, N54K counted along it", "assay": "ER retrieval assay, KDELR1 N54K-GFP", "excerpt": "as §1"}, "[3]": {"molecular_target": "T3, human KDELR1 D50N/N54K/E117Q/W120A (Homo sapiens, UniProt P24390, D50N/E117Q/N54K/W120A)", "T3 construct": "expressed in transfected cells; host or cells: COS-7", "T3 sequence (P24390 whole entry D50N/N54K/E117Q/W120A)": "as the sequence (P24390 whole entry D50N) above, with N54K, E117Q, W120A counted along it", "assay": "ER retrieval assay, KDELR1 D50N/N54K/E117Q/W120A-GFP", "excerpt": "as §1"}}}
{"substance": "ADEL [pcDNA3.1 hGHss-mScarlet-H. sapiens BiP639-654K651A (ADEL^SEC), secreted mScarlet fusion with human BiP C-terminus, ADEL signal]", "values": [{"measurement": "ligand-induced receptor retrieval to the ER (in words)", "setting": "[1]", "value": "abolished the response to all signal variants"}, {"measurement": "ligand-induced receptor retrieval to the ER (in words)", "setting": "[2]", "value": "did not result in ADEL or DDEL recognition"}, {"measurement": "ligand-induced receptor retrieval to the ER (in words)", "setting": "[3]", "value": "does not relocate from the Golgi to the ER"}]}
